Measurements taken from publication PMC6158189, “A pharmacological probe identifies cystathionine β-synthase as a new negative regulator for ferroptosis” (Cell Death & Disease, 2018).
Entries after “also recorded” stand apart in the source; their conditions may differ.

Target: T1, CBS-FL mutant (293T-CBS Q222A) (Homo sapiens, UniProt P35520, Q222A)
T1 construct: human CBS or hCSE full-length (CBS-FL or CSE) was subcloned into pGEX-KG, pcDNA3 or pCDH vector; expressed in transfected cells
Assay: H2S in HEK293T cells stably expressing CBS Q222A (AzMC probe)
Type: cell-based
Conditions: 5 and 10 μM CH004, 8 h
Procedure: HEK293T cells were transiently transfected with empty vector (EV, i and ii), hCBS-FL (iii and iv) or hCSE (v and vi) plasmids, followed by incubation with DMSO (i–iii and v) or 10 μM CH004 (iv and vi) for 8 h before staining with 50 μM AzMC, a H2S-specific probe (“Materials and Methods” section). For larger fluorescent and bright-field images, please see Supplementary Figure 4. The expression levels of hCBS or hCSE in HEK293T cells after transient transfections were determined by western blotting using an anti-CBS antibody (3E1, 1:2000; Abnova) or anti-CSE antibody (1:500, GeneTex). The densities of protein bands for hCBS or hCSE in the blots were quantified with the ImageJ software (National Institutes of Health, Bethesda, MD, USA) and expressed as ratios of respective control (EV group). […] The fluorescent images of the H2S (blue) were accordingly quantified (“Materials and Methods” section) with ImageJ. […] A representative fluorescence image from three independent experiments is shown. […]
H2S levels in living cells were detected using a H2S-specific fluorescent probe according to a protocol described previously[31],[55]. […] After incubation with 50 μM AzMC at 37 °C for 30 min, the cells were washed 4 times with PBS, and the fluorescent images were recorded with excitation by 405 nm laser by using a A1Si (Nikon) confocal microscope. […]

For `Cn1nc(Cc2ccccc2)nc2c(=O)n(C)c(=O)nc1-2` [CH004, 3-benzyl-1,6-dimethylpyrimido[5,4-e][1,2,4]triazine-5,7(1H,6H)-dione], the “effect on H2S” value was “no significant decrease; also recorded: hardly affected”.
